Test results from patent US9453016B2, “Terpenoid spiro ketal compounds with LXR agonists activity, their use and formulations with them” (priority 2010, dated 2016).
pEC50: −log10 of the molar value.

Experiments:
LXRα = LXRα (Homo sapiens, UniProt Q13133); assay: LXR HTR-FRET coactivator (b-SRC1) recruitment assay, LXRα; format: biochemical; details: FRET 12-point dose response, GST-LXR LBD
Text: (§1) The LXR assay is configured using time-resolved fluorescence resonance energy transfer technology (HTR-FRET) (see Albers et al., J. Biol. Chem. 2006 24; 281(8) 4920-30; Chin J, Assay Drug Dev. Technol. 2003 1(6):777-87).
(§2) In the presence of an agonist, a fusion protein of glutathione S-transferase (GST) and LXR ligand binding domain (GST-LXR LBD) associates with a biotin-labeled nuclear receptor coactivator (b-SRC1). A fluorescent signal is detected in the presence of Eu-labeled anti GST antibodies and streptavidin-labeled allophycocyanin (APC). FRET is made possible by agonist-dependent close interaction of the test proteins.
(§3) Compounds which act as agonists at the LXR ligand binding domain were detected by an increase in time-resolved fluorescence. This LXR-FRET was performed as described by Albers et al. (loc. cit.).
(§4) FRET-active compounds were assayed in a FRET 12-point dose response experiment to determine the EC50—values of the compounds mentioned in the following Table 5.

LXRβ = LXRβ (Homo sapiens, UniProt P55055); assay: LXR HTR-FRET coactivator (b-SRC1) recruitment assay, LXRβ; format: biochemical; details: FRET 12-point dose response, GST-LXR LBD
LXRβ, sequence (P55055 222-460 limits assumed): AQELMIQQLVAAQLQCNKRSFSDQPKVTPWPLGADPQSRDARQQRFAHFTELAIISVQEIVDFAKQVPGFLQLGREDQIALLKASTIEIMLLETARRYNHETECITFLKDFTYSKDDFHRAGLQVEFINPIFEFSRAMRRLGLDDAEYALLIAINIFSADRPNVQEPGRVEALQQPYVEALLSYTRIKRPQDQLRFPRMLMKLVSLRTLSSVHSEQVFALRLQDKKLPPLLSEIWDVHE
LXRβ, sequence (Q15788 whole entry partner, the tested form may be a part): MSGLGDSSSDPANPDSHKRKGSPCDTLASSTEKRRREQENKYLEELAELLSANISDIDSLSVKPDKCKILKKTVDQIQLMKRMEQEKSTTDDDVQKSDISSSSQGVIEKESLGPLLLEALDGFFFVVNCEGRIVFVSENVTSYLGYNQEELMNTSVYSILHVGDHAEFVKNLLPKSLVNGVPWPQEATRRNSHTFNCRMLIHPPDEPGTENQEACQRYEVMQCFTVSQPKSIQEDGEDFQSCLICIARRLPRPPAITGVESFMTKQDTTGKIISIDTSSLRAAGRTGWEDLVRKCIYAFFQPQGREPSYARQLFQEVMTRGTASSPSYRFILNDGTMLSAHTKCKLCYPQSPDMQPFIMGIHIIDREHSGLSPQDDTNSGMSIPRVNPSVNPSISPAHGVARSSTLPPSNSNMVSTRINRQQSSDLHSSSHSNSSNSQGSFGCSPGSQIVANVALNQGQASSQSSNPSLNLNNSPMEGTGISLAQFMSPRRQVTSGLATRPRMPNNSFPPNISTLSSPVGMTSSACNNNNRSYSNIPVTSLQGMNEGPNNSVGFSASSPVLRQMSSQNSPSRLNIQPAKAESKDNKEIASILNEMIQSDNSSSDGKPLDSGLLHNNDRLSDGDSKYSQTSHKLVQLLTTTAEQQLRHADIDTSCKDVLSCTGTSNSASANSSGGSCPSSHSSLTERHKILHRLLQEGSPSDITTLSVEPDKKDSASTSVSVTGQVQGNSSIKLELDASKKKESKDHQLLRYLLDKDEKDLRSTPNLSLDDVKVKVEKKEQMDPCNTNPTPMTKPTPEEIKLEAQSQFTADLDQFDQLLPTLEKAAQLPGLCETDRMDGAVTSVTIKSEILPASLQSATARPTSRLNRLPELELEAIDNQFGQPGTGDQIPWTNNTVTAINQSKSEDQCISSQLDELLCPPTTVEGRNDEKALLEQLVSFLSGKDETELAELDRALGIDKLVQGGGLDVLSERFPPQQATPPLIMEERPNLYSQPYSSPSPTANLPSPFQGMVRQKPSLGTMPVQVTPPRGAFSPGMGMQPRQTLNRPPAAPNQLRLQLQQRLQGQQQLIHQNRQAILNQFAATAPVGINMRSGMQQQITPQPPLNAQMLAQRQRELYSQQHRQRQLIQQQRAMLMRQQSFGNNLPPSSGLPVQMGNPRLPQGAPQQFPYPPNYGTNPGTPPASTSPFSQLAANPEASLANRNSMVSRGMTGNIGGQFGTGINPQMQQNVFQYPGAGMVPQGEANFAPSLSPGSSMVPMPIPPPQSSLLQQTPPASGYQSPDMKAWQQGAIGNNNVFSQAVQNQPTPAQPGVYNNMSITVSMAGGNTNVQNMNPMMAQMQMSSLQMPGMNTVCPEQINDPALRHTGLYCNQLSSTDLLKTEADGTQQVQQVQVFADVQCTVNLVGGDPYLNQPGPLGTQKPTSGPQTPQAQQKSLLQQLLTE
Text: as §1, §2, §3, §4

liver cancer cell lines = details: cited from earlier work
lung cancer cells = details: cited from earlier work
[1] = test system: female APOE*3-Leiden(E3L).CETP transgenic mice; assay: Plasma lipids in APOE*3Leiden.CETP transgenic mice on Western-type diet; format: in vivo; details: for Plasma cholesterol: mean ± SD of 10 mice
Text: The aim of the study was to evaluate the effects of extract IMD-XT0022 (see example 1c) on plasma lipids in female APOE*3-Leiden(E3L).CETP transgenic mice (hereinafter referred to as APOE*3Leiden mice). The effects were compared with phytosterol as a positive control.
Forty female APOE*3Leiden mice (from the specific pathogen free breeding stock at TNO-Metabolic Health Research, Leiden, Netherlands), 15-16 weeks of age at the start of the experiment were housed during the experiment in Macrolon® cages (maximally 5 animals per cage) in clean-conventional animal rooms (relative humidity 50-60%, temperature about 21° C., light cycle 7 am to 7 pm). Individual mice were marked by ear-punch holes and supplied with food and acidified tap water ad libitum. Dietary ingredients were provided by Hope Farms (Woerden, the Netherlands): The mice received a semi-synthetic modified Western-type diet (WTD) as described by Nishina et al., J. Lipid. Res. 1990:31:859, containing cholesterol (0.1% w/w, final concentration) and saturated fat (15% w/w cacao butter). The animals were put on a Western-type diet with 0.1% cholesterol for 4 weeks (run-in period). After the run-in period, APOE*3Leiden mice were sub-divided into three groups of 10 mice each and treated during 5 weeks with the following compounds: Control group (vehicle gavage, Western-type diet without diet additions), extract group (Western-type diet without diet additions, 100 mg/kg/d extract IMD-XT0022 via daily gavage) or phytosterol group (vehicle gavage, Western-type diet with addition of 1 wt. % of free phytosterol). One week before first administration of IMD-XT0022 mice were gavaged with vehicle to get used to the procedure. Food intake and body weight were measured weekly during the treatment period (t=0, 1, 2, 3, 4 and 5 weeks). After two and five weeks of treatment blood samples were taken after a 4 hour fasting period. After 3 weeks of treatment vehicle Delios V oil (a medium-chain triglyceride oil obtained from BASF Personal Care and Nutrition GmbH, Düsseldorf, Germany) was replaced by Polyethylengycol-400 (PEG-400, Sigma-Aldrich, Steinheim, Germany) for all groups.
Extract IMD-XT0022 was administered daily by oral gavage between 8.00 and 11.00 am CET. In the phytosterol group phytosterol was administered orally as admix to the WTD (1% w/w free phytosterol). The control group and the phytosterol group received the vehicle accordingly. The gavage volume during the treatment period was 10 ml/kg and was adjusted weekly based on the measured body weight of the respective week.
Plasma cholesterol, triglycerides and HDL cholesterol were measured individually at t=0, 2 and 5 weeks. On group level ALT, AST levels and lipoprotein profiles (at t=0 and 5 weeks) were measured. Feces were collected (per cage) during week 5.
On the mornings of the blood sampling time points of t=weeks 2 and t=5 weeks, gavages were not performed between 8.00-11.00 am, but were performed after the blood sampling. At t=5 weeks, 3 days after the last blood sampling, mice were sacrificed after a 4 hour fasting period (and without giving a gavage on the day of sacrifice) by CO2 suffocation. EDTA-plasma was collected via heart puncture and stored at <−70° C. and several organs were collected.
After a 4 weeks run-in period, 10 low-responder mice were removed from the study. The remaining 30 mice where subdivided into 3 groups of 10 mice each, matched for body weight, plasma cholesterol, triglycerides, HDL-cholesterol and age (t=0) […]

[2] = test system: female APOE*3-Leiden(E3L).CETP transgenic mice; assay: Pooled lipoprotein profiles (FPLC) in APOE*3Leiden.CETP mice; format: in vivo; details: after 5 weeks of treatment, pooled plasma per group

LXRα, sequence (Q13133 209-447 limits assumed): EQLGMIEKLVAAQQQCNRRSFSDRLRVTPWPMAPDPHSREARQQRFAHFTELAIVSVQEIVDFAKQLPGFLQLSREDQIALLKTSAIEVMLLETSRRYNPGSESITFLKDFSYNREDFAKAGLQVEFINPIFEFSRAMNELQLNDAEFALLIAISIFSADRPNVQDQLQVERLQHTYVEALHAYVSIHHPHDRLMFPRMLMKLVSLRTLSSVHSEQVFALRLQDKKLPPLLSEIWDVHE
LXRα, sequence (Q15788 whole entry partner, the tested form may be a part): as the sequence (Q15788 whole entry partner, the tested form may be a part) above

Row | pEC50 (LXRα) | pEC50 (LXRβ) | Compound | other results
1 | 5.85 | 4.60 | COc1ccc2c(c1C)C=C[C@]1(C)[C@@H]3CC[C@]21O[C@@]1(OC(C)(C)[C@@H](C)[C@H]1O)[C@H]3C [Compound 1, (2S,3S,3′R,4R,4′S,4aR,10bR)-4,4′,4a,5′-Tetrahydro-8-methoxy-3,4′,4a,5′,5′,7-hexamethyl-spiro[4,10b-ethano-10bH-naphtho[1,2-b]pyran-2(3H),2′(3′H)-furan]-3′-ol] | Biological activities against liver cancer cell lines (liver cancer cell lines): confirmed the biological activities
2 | 5.96 | 5.26 | Cc1c(O)ccc2c1C=C[C@]1(C)[C@@H]3CC[C@]21O[C@@]1(OC(C)(C)[C@@H](C)[C@H]1O)[C@H]3C [Compound 2, (2S,3S,3′R,4R,4′S,4aR,10bR)-4,4′,4a,5′-tetrahydro-3,4′,4a,5′,5′,7-hexamethyl-spiro[4,10b-ethano-10bH-naphtho[1,2-b]pyran-2(3H),2′(3′H)-furan]-3′,8-diol] | –
3 | 4.96 | 4.62 | COc1ccc2c(c1CO)C=C[C@]1(C)[C@@H]3CC[C@]21O[C@@]1(OC(C)(C)[C@@H](C)[C@H]1O)[C@H]3C [Compound 3, (2S,3S,3′R,4R,4′S,4aR,10bR)-4,4′,4a,5′-Tetrahydro-3′-hydroxy-8-methoxy-3,4′,4a,5′,5′-pentamethyl-spiro[4,10b-ethano-10bH-naphtho[1,2-b]pyran-2(3H),2′(3′H)-furan]-7-methanol] | –
4 | 4.51 | 4.47 | COc1ccc2c(c1C)C=C[C@@]1(C)[C@]23CC[C@]1(O)[C@H](C)[C@]1(OC(C)(C)[C@@H](C)[C@H]1O)O3 [Compound 7, (2S,3S,3′R,4R,4′S,4aR,10bR)-4,4′,4a,5′-Tetrahydro-17-hydroxy-8-methoxy-3,4′,4a,5′,5′,7-hexamethyl-spiro[4,10b-ethano-10bH-naphtho[1,2-b]pyran-2(3H),2′(3′H)-furan]-3′-ol] | –
5 | 4.62 | 4.51 | COc1ccc2c(c1C)CC(=O)[C@]1(C)[C@@H]3CC[C@]21O[C@@]1(OC(C)(C)[C@@H](C)[C@H]1O)[C@H]3C [Compound 8, (2S,3S,3′R,4R,4aR,4′S,10bS)-3′-hydroxy-8-methoxy-3,4a,4′,5′,5′,7-hexamethyl-4,4a,4′,5′-tetrahydro-3H,3′H-spiro[4,10b-ethanobenzo[h]chromene-2,2′-furan]-5(6H)-one] | –
6 | – | – | COc1ccc2c(c1C)CC[C@]1(C)[C@@H]3CC[C@]21O[C@@]1(OC(C)(C)[C@@H](C)[C@H]1O)[C@H]3C [Compound 14, (2S,3S,3′R,4R,4aR,4′S,10bR)-8-methoxy-3,4a,4′,5′,5′,7-hexamethyl-4,4a,4′,5,5′,6-hexahydro-3H,3′H-spiro[4,10b-ethanobenzo[h]chromene-2,2′-furan]-3′-ol] | Biological activities against liver cancer cell lines (liver cancer cell lines): confirmed the biological activities
7 | – | – | CO[C@@H]1C=C2C3CC[C@H](C(C)/C=C/C(C)C(C)C)[C@@]3(C)CC[C@@H]2[C@@]2(C)CC[C@H](O)C[C@]12O (stereo partly drawn) [blazein] | Apoptosis in lung cancer cells (lung cancer cells): induced apoptosis
8 | – | – | phytosterol | Decrease of plasma cholesterol as compared to the control group ([1]; after 5 weeks of treatment): 16%; Decrease of plasma triglycerides as compared to the control group ([1]; after 5 weeks of treatment): 36%; Plasma HDL, effect as compared to the control group ([1]; mouse, in vivo): not affected; Plasma cholesterol ([1]; t = 0 weeks (after run-in, before treatment)): 10.9 ± 1.6 mM; Plasma cholesterol ([1]; t = 2 weeks of treatment, extract 100 mg/kg/d gavage, phytosterol 1 wt.% in diet): 9.4 ± 1.3 mM; Plasma cholesterol ([1]; t = 5 weeks of treatment, extract 100 mg/kg/d gavage, phytosterol 1 wt.% in diet): 8.1 ± 1.8 mM; Decrease in the area under the curve of the VLDL peak, cholesterol [2]: 25%; Decrease in the area under the curve of the VLDL peak, phospholipid [2]: 21%

Row | Compound | pEC50 (LXRα) | pEC50 (LXRβ) | other results
9 | C[C@H]1[C@@H](O)[C@]2(OC1(C)C)O[C@]13CC[C@H]([C@@H]2C)[C@@]1(C)CC=C1C3=CC(=O)C2=CC(=O)CC[C@@]21C [Compound 5, (14β,22S,23R)-14,22:22,25-Diepoxy-23-hydroxy-ergosta-4,7,9-triene-3,6-dione] | 5.12 | 4.62 | –
10 | C[C@H]1[C@H](O)[C@@]2(OC1(C)C)O[C@]13CC[C@H]([C@@H]2C)[C@@]1(C)C=CC1=C3C=CC2=CC(=O)CC[C@@]21C [Compound 6, (14β,22S,23S)-14,22:22,25-Diepoxy-23-hydroxy-ergosta-4,6,8,11-tetraen-3-one] | 5.26 | 4.85 | –
11 | C[C@H]1[C@@H](O)[C@@]2(OC1(C)C)O[C@]13CC[C@H]([C@@H]2C)[C@@]1(C)[C@H](O)C=C1C3=CC(=O)C2=CC(=O)CC[C@@]21C [Compound 9, (1R,2S,2′S,3′R,4aS,4′S,10aR,12R,12aS)-3′,12-dihydroxy-2,4′,5′,5′,10a,12a-hexamethyl-4′,5′,10,10a,12,12a-hexahydro-1H,3′H-spiro[1,4a-ethanonaphtho[1,2-h]chromene-3,2′-furan]-6,8(2H,9H)-dione] | 6.00 | 5.34 | –
